Data as given in ChEMBL document CHEMBL1201862, “PubChem BioAssay data set” (2004).
Blank lines part the entries; values can stand above or below the compound they belong to. The source made the active and inactive calls.

Tests used:
[1] = target: Glutathione-S-transferase (Schistosoma japonicum, UniProt Q26513); test: biotin-GST/anti-GST TR-FRET signal inhibitors, dose response, artefact control for Vif-APOBEC3G degradation inhibitor project, biochemical (AID 1117362); type: functional
Bcl-2-like protein 10 = target: T1, Bcl-2-like protein 10 (Homo sapiens, UniProt Q9HD36); test: displacers of TR3 peptide from Bcl-B, primary screen, selectivity assay for Bfl-1 inhibitor project, biochemical, fluorescence polarization, FITC-TR3 peptide (AID 748);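 note: fluorescence polarization from a fluorescein-labelled TR3 peptide binding purified Bcl-B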
T1 sequence (Q9HD36 whole entry): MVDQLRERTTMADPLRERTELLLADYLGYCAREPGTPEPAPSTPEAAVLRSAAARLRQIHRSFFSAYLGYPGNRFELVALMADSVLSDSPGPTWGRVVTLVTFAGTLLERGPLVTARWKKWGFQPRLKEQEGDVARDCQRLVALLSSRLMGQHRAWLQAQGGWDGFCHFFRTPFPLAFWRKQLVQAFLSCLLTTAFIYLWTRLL

[2] = Vero cell cytotoxicity, dose response, cytotoxicity control for Vif-APOBEC3G degradation inhibitor project, Vero cells (AID 1117358); type: functional; conditions: Human immunodeficiency virus 1, Vero
[3] = inhibitors of Vif binding to APOBEC3G peptide, primary screen, biochemical, TR-FRET, GST-Vif 1-94, biotin-A3G peptide, dose response retest (AID 1117319); type: functional;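 note: TR-FRET signal of purified GST-Vif binding a biotinylated A3G peptide; inhibitors lower the FRET signal by blocking Vif and A3G binding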
Caspase-7 = Caspase-7 (Homo sapiens, UniProt P55210); test: human caspase-7 inhibitors, dose response, selectivity assay for caspase-6 inhibitor project, biochemical, DEVD-R110 fluorescence, cherry-pick (AID 743295)
[4] = target: T2, Sentrin-specific protease 6 (Homo sapiens, UniProt Q9GZR1); type: functional;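 note: Luminescence-based dose-response confirmatory assay of SENP6 inhibition, following up an ultra-high-throughput screen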
T2 sequence (Q9GZR1 whole entry): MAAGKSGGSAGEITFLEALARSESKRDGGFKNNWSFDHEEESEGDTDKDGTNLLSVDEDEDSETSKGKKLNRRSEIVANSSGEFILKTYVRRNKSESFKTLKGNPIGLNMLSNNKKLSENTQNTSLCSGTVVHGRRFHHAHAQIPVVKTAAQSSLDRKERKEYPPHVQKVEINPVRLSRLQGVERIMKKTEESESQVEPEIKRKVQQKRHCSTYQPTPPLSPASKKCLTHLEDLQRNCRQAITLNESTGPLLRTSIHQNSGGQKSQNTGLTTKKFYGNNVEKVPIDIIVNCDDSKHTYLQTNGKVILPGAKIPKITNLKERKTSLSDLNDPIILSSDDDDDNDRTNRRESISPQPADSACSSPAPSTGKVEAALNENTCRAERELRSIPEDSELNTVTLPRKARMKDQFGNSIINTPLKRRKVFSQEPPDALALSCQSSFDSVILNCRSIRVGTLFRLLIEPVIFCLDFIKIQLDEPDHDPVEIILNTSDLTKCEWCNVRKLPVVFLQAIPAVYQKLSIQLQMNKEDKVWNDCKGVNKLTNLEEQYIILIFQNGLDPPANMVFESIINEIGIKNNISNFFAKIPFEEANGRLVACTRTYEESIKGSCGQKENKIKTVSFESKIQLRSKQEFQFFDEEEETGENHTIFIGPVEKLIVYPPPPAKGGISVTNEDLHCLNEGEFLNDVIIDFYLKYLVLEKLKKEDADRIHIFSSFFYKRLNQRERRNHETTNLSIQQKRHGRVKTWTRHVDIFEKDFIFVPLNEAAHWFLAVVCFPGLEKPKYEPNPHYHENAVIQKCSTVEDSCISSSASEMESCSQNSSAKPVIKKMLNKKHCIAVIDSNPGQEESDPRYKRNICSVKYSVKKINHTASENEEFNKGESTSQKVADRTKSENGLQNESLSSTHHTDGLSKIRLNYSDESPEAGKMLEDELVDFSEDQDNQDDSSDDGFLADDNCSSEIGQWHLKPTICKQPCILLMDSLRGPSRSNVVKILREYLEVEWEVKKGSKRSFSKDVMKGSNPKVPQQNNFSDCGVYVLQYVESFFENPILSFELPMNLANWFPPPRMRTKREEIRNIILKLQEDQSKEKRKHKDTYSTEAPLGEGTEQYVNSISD

Caspase-6 = Caspase-6 (Homo sapiens, UniProt P55212); test: human caspase-6 inhibitors, dose response, biochemical, VEID-R110 fluorescence, cherry-pick (AID 720632)
Caspase-8 = Caspase-8 (Homo sapiens, UniProt Q14790); test: caspase-8 inhibition counter-screen, dose response, selectivity assay for caspase-6 inhibitor project, biochemical, Z-IETD-R110 fluorescence, cherry-picked samples (AID 743294)
Caspase-3 = target: T3, Caspase-3 (Homo sapiens, UniProt P42574); type: functional;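 note: Dose-response selectivity test against caspase-3 for candidate inhibitors of sentrin-specific proteases (SENPs)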
T3 sequence (P42574 whole entry): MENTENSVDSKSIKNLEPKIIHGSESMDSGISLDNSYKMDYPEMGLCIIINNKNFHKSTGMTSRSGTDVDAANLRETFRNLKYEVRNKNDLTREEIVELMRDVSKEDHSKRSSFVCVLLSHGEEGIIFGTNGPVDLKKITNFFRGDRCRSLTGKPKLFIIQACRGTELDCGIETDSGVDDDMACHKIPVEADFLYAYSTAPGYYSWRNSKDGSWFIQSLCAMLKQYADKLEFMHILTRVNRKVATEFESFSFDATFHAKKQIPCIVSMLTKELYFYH

[5] = target: T4, Sentrin-specific protease 7 (Homo sapiens, UniProt Q9BQF6); type: functional;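 note: Luminescence-based dose-response confirmation of ultra-high-throughput screening hits, measuring inhibition of SENP7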
T4 sequence (Q9BQF6 whole entry): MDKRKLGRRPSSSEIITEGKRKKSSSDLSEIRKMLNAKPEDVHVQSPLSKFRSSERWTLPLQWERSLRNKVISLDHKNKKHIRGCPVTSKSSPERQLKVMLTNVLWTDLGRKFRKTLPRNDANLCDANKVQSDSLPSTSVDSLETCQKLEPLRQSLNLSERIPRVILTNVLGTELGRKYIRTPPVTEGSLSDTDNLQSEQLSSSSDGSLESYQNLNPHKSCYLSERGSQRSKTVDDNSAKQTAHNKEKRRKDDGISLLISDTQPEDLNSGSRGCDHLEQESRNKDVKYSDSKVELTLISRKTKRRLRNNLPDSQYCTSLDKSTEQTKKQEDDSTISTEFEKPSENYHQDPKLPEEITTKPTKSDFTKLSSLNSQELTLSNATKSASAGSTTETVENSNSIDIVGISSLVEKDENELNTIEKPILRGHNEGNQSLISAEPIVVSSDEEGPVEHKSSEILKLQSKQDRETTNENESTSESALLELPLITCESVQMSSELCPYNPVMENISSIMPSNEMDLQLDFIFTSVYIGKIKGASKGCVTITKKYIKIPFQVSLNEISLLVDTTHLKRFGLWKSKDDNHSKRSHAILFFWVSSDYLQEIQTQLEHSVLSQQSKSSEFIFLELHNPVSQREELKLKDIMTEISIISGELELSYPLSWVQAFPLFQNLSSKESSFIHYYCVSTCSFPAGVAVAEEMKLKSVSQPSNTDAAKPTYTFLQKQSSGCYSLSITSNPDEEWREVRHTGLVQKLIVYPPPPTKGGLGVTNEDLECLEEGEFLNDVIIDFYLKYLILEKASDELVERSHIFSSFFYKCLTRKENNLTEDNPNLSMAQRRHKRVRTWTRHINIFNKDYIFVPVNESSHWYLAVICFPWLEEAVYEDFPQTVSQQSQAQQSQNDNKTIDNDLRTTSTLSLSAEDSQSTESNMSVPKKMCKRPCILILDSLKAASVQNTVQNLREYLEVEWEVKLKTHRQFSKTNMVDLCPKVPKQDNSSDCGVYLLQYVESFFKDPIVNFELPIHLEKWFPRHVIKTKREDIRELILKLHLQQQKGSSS

[6] = target: T5, Mitochondrial peptide methionine sulfoxide reductase (Bos taurus, UniProt P54149); test: Absorbance-based biochemical high throughput dose response assay for activators of Methionine sulfoxide reductase A (MsrA).; type: functional
T5 sequence (P54149 whole entry): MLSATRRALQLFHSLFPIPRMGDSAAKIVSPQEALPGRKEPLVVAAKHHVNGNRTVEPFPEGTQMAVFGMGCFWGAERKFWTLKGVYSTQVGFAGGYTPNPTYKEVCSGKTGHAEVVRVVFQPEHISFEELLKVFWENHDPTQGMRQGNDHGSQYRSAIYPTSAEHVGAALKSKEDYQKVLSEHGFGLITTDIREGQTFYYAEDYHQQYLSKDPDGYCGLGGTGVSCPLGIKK

[7] = target: T6, Sentrin-specific protease 8 (Homo sapiens, UniProt Q96LD8); type: functional;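 note: luminescence read-out of SENP8 inhibition, dose-response confirmation following an ultra-high-throughput screen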
T6 sequence (Q96LD8 whole entry): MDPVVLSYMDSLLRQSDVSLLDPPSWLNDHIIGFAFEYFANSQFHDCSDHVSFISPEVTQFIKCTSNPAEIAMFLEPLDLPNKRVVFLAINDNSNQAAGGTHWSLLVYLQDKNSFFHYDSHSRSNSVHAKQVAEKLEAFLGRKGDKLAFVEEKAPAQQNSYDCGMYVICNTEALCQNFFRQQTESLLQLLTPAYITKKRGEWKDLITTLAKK

[8] = A2780 ovarian cancer cell cytotoxicity, dose response, cytotoxicity control, plate reader, dry powder samples (AID 743046); type: functional, cell-based
Paired box protein Pax-8 = Paired box protein Pax-8 (Homo sapiens, UniProt Q06710); test: inhibitors of PAX8-driven TPO luciferase reporter, dose response, RMG-I cells, cherry-pick (AID 687027); type: functional, cell-based;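 note: luciferase reporter driven by Pax8 target thyroperoxidase promoter measured by SteadyGlo luminescence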
[9] = cytotoxicity in OVCAR8 ovarian cancer cells, dose response, PAX8 project, cell-based, plate reader, dry powder samples (AID 743197); type: functional; conditions: OVCAR-8
[10] = IOSE-T80 ovarian epithelial cell cytotoxicity, dose response, cytotoxicity control for PAX8 inhibitor project, plate reader, dry powder samples (AID 743045); type: functional, cell-based
[11] = NIH:OVCAR-3 ovarian cancer cell cytotoxicity, dose response, PAX8 inhibitor project, plate reader, dry powder samples (AID 743044); type: functional, cell-based
[12] = non-specific cell cytotoxicity, dose response, cytotoxicity control for PAX8 inhibitor project, plate reader, dry powder samples (AID 743021); type: functional, cell-based
[13] = Late stage assay provider results from the probe development effort to identify inhibitors of the Plasmodium falciparum M18 Aspartyl Aminopeptidase (M18AAP): radiolabel-based cell-based dose response assay to identify compounds that inhibit P. falciparum growth in RBCs, Set 2..; type: functional
[14] = CTGF mRNA reduction under YAP1 overexpression, dose response, mechanism study for YAP1 pathway inhibitor project, DLD1 cells, RT-qPCR, cherry-pick (AID 1053127); type: functional, cell-based; conditions: DLD-1

Paired box protein Pax-8, sequence (Q06710 whole entry): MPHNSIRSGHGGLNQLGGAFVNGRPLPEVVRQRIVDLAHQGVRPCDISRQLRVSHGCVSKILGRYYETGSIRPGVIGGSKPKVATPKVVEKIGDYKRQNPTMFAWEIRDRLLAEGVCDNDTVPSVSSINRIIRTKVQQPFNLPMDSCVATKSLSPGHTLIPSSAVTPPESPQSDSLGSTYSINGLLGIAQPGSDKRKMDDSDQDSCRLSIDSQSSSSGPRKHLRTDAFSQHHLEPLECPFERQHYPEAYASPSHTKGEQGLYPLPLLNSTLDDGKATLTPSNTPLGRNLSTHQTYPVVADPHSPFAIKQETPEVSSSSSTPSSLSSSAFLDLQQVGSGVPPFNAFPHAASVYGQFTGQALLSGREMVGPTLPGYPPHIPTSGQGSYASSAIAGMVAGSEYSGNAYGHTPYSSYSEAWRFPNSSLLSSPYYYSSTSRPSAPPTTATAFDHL
Glutathione-S-transferase, sequence (Q26513 whole entry): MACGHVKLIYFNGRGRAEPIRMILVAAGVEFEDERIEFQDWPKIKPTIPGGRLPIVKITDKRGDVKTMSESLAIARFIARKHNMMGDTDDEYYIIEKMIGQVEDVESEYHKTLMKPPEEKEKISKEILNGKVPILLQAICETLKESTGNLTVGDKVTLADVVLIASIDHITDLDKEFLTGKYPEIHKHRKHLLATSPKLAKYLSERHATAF
Caspase-6, sequence (P55212 24-179 limits assumed): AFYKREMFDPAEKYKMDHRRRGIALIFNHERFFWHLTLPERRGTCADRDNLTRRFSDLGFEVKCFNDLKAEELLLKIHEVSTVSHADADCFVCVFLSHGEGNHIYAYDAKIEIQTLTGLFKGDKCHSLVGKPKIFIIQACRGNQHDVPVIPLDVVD
Caspase-6, sequence (P55212 194-293 limits assumed): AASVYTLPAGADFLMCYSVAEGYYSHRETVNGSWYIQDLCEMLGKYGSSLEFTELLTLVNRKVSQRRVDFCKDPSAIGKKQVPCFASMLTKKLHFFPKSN
Caspase-7, sequence (P55210 24-198 limits assumed): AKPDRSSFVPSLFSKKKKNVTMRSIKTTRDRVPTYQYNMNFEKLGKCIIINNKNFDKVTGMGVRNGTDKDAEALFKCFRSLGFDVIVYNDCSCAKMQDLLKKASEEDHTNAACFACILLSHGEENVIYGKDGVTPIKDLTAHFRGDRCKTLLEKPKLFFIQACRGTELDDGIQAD
Caspase-7, sequence (P55210 207-303 limits assumed): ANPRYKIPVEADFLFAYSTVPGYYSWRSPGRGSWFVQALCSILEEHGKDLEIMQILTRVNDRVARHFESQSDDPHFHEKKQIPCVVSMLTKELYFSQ
Caspase-8, sequence (Q14790 217-374 limits assumed): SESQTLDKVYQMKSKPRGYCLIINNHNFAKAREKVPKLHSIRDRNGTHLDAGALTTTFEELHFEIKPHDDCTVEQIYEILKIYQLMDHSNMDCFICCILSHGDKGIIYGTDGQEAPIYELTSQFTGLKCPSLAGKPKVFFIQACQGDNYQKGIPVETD
Caspase-8, sequence (Q14790 385-479 limits assumed): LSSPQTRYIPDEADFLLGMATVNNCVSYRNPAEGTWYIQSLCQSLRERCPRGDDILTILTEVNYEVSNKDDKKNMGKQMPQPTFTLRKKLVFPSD

- IC50 [1]: > 100 µM (active)
- IC50 (Bcl-2-like protein 10): > 100 µM (inactive)
Compound: Cc1ccc(OCCSc2nnc(-c3ccncc3)n2C)cc1

- IC50 [3]: > 100 µM (active)
Compound: COc1ccccc1Cn1c(-c2ccccc2OC)nc2ccccc21
- CC50 [2]: > 40 µM (active)

- AC50 (Caspase-7): 20 µM (active)
- IC50 [4]: 52.9 µM (active)
- AC50 (Caspase-6): 3.32 µM (active)
- AC50 (Caspase-8): 19.6 µM (active)
- IC50 (Caspase-3): 96.6 µM (active)
- IC50 [5]: 92 µM (active)
- EC50 [6]: 17.4 µM (inactive)
Compound: O=C1CN(C(=O)COC(=O)c2ccc([N+](=O)[O-])s2)c2ccccc2N1
- IC50 [7]: 47.9 µM (active)

Compound: C[C@H]1CCCCO[C@H](CN(C)S(=O)(=O)c2ccc(Cl)cc2)[C@@H](C)CN([C@@H](C)CO)C(=O)c2cc(NS(=O)(=O)c3ccc(F)cc3)ccc2O1
- AC50 [8]: 58.4 µM (active)
- AC50 (Paired box protein Pax-8): 8.27 µM (active)

Compound: Cc1ccc(S(=O)(=O)Nc2ccc3c(c2)C(=O)N([C@H](C)CO)C[C@H](C)[C@H](CN(C)Cc2ccc(C(F)(F)F)cc2)OCCCC[C@H](C)O3)cc1
- AC50 [9]: 24.7 µM (active)
- AC50 [10]: 46.2 µM (active)
- AC50 [11]: 19.4 µM (active)
- AC50 [12]: 41.7 µM (active)
- AC50 (Paired box protein Pax-8): 9.98 µM (active)

Compound: Oc1ccc(CCNc2c3c(nc4ccccc24)CCCC3)cc1O
- IC50 [13]: 3.6 µM (active)

Compound: COc1cccc(-c2ccc([C@@H]3[C@@H](CO)N4CCCCN(C(=O)Cc5ccncc5)C[C@@H]34)cc2)c1
- AC50 [14]: > 26 µM (inactive)
